Assay results from patent publication US4225610A, “Immunoactivators derived from amino thiazoles” (Pierre Fabre, S.A., priority 1977, dated 1980).
Several values for one entry are separate records, joined by “and”; a condition that tells them apart may be missing. Equal values may be shown once. Entries after “also recorded” stand apart in the source; their conditions may differ. Read-outs that look alike come from different tables or passages of the source.

Assays:
[1] = system: cutaneous delayed hypersensitivity reaction to PPD; assay type: in vivo, albino guinea pigs
[2] = Chronic toxicity per os for two months in rats; conditions: rat, in vivo, po, read-out: Dose not resulting in any toxic phenomenon
[3] = system: Delayed Hypersensitivity Pleurisy to Bordetella pertussis; test: Pleurisy of delayed hypersensitivity to Bordetella pertussis in rats after chronic treatment; assay type: in vivo; conditions: for Action on the number of mononuclears / Action on the number of polynuclears / Action on the total number of leukocytes / Action on the volume of exudate: 5 mg/kg p.o.; for Delayed hypersensitivity pleural inflammation (in words) / Action compared with levamisole (in words): orally, chronic treatment, 5 mg/kg/administration; for Action compared with levamisole (in words): both treatment procedures
Experimental: II--Action on Pleurisy of Delayed Hypersensitivity to Bordetella pertussis in Rats After Chronic Treatment […]
Male rats weighing 280-320 g are used. The suspension of Bordetella pertussis used is the pertussis vaccine of the Pasteur Institute (5×10^9 killed bacilli per ml). The Bordetella pertussis suspension is mixed (V/V: 50/50) with Freund's complete adjuvant. 0.2 ml of this mixture is injected intramuscularly into each thigh of the rat.
6 days later, 0.1 ml of the Bordetella pertussis suspension is injected into the pleural cavity. 48 hours later, the pleural exudate formed is removed and measured. The total number of leukocytes and the number of mononuclears and polynuclears of the exudate are determined.
The products studied were administered chronically in accordance with two procedures:
Procedure 1: The treatment commences on the day of the sensitization and continues at the rate of one administration per day until the challenge injection. On the day of the latter the compounds are given twice: one administration before and one after the intrapleural injection of the antigen. The animals are treated a last time 24 hours later.
Procedure 2: The treatment commences three weeks before the sensitization. During these three weeks, the products are given at the rate of 5 times per week. The treatment is then continued as indicated above in Procedure 1.

mice = test: in vivo; assay type: in vivo
From the text: (§1) The acute toxicity after a single administration of the products per os was studied in mice.
(§2) The compounds were placed in suspension in a mixture of Tween 80™ and distilled water. […] Exper.

in vivo = assay type: in vivo; conditions: mouse, in vivo, po; mice, per os, single administration, 7 days
From the text: as §1, §2

[4] = 1000 mg/kg per os, 5 mice per lot
[5] = 200 mg/kg per os, 5 mice per lot

Row | Structure (SMILES) | Solubility in DMA (Solubility) [%] | Solubility in methyl pyrrolidone (Solubility) [%] | Solubility in water (Solubility) | LD50 at 168 h (in vivo) [mg/kg] | Mortality at the end of 7 days (mice; [4]) | further results
1 | O=C(Nc1nc(-c2ccccc2)cs1)OCC(Cl)(Cl)Cl [F 1686, 4-phenyl-2-(2'-2'-2'-trichloroethoxycarboxamido) thiazole] | 25 | 20 | insoluble | > 1000 | – | Effect on the response to PPD (in words) ([1]; […], response of low intensity in controls (two to three weeks)): stimulate the response; Effect on the response to PPD (in words) ([1]; after 5 and 6 weeks): do not modify it significantly any longer; Stimulation of the reaction to the PPD (in words) ([1]; dependence on immune state): does not stimulate the reaction to the PPD except when the guinea pigs are in a state of hypoimmunization; NOAEL at 1460 h [2]: ≤ 30 mg/kg/day; Solubility in ethanol (Solubility): 3%; Action on the number of mononuclears ([3]; Treatment procedure 1): -21%; Action on the number of polynuclears ([3]; Treatment procedure 1): -16%; Action on the total number of leukocytes ([3]; Treatment procedure 1): -19%; Action on the volume of exudate ([3]; Treatment procedure 1): -35%; Action on the number of mononuclears ([3]; Treatment procedure 2): -29%; Action on the number of polynuclears ([3]; Treatment procedure 2): -6%; Action on the total number of leukocytes ([3]; Treatment procedure 2): -22%; Action on the volume of exudate ([3]; Treatment procedure 2, 5 mg/kg): -50% and -42%; Delayed hypersensitivity pleural inflammation (in words) [3]: reduce the delayed hypersensitivity pleural inflammation; Action compared with levamisole (in words) [3]: superior to that of levamisole; Mortality at the end of 7 days (mice; 1000 mg/kg per os, 10 mice per lot): 0
2 | O=C(Nc1nc(-c2ccccc2)cs1)Oc1ccccc1 [F 1659, 4-phenyl 2-phenoxy carbamoyl thiazole] | 4 | 3 | insoluble | > 1000 | 0 | –
3 | O=C(Nc1nc(-c2ccc(Cl)cc2)cs1)c1cccnc1 [F 1685, N(4-parachlorophenyl 2-thiazolyl) nicotinamide] | 20 | 20 | insoluble | > 1000 | 0 | –
4 | c1ccc([C@H]2CN3CCSC3=N2)cc1 [Levamisole, L-tetramisole, reference compound] | – | – | – | – | – | Effect on the response to PPD (in words) ([1]; guinea pig, in vivo): to a definitely lesser degree stimulate the response; also recorded: do not modify it significantly any longer; Action on the number of mononuclears ([3]; Treatment procedure 1): -11%; Action on the number of polynuclears ([3]; Treatment procedure 1): -9%; Action on the total number of leukocytes ([3]; Treatment procedure 1): -10%; Action on the volume of exudate ([3]; Treatment procedure 1): -22%; Action on the number of mononuclears ([3]; Treatment procedure 2): -17%; Action on the number of polynuclears ([3]; Treatment procedure 2): -7%; Action on the total number of leukocytes ([3]; Treatment procedure 2): -13%; Action on the volume of exudate ([3]; Treatment procedure 2): -23%
5 | Nc1nc(-c2ccccc2)cs1 [F 1653, 4-phenyl 2-amino thiazole] | – | – | insoluble | 140 | – | Solubility in dimethyl pyrrolidone (Solubility; dimethyl pyrrolidone): 20%; Solubility in ethanol (Solubility): 1%; Mortality at the end of 7 days (mice; 100 mg/kg per os, 5 mice per lot): 0; Mortality at the end of 7 days (mice; [5]): 5
6 | O=C(Nc1nc(-c2ccc(Cl)cc2)cs1)Oc1ccccc1 [F 1687] | 5 | 5 | insoluble | > 1000 | 0 | –
7 | CCCCCCCCCCCC(=O)Nc1nc(-c2ccccc2)cs1 [F 1655] | 25 | 25 | insoluble | > 1000 | 0 | –
8 | O=C(Nc1nc(-c2ccc(Cl)cc2)cs1)OCC(Cl)(Cl)Cl [F 1660, 4-parachlorophenyl 2-(2'-2'-2'-trichloroethoxycarbamido) thiazole] | 20 | 20 | insoluble | > 1000 | 0 | –
9 | CCOC(=O)Nc1nc(-c2ccccc2)cs1 [F 1658, 4-phenyl 2-(ethoxycarboxamido) thiazole] | 25 | 25 | insoluble | – | – | –
10 | Nc1nc(-c2ccc(Cl)cc2)cs1 [F 1654, 4-Parachloro-phenyl 2-amino thiazole] | – | – | insoluble | 300 | – | Solubility in ethanol (Solubility): 15%; Action on the volume of exudate ([3]; Treatment procedure 2): -41%; Delayed hypersensitivity pleural inflammation (in words) [3]: reduce the delayed hypersensitivity pleural inflammation; Action compared with levamisole (in words) [3]: superior to that of levamisole; Mortality at the end of 7 days (mice; [5]): 0; Mortality at the end of 7 days (mice; 300 mg/kg per os, 5 mice per lot): 3; Mortality at the end of 7 days (mice; 500 mg/kg per os, 5 mice per lot): 5
11 | O=C(O)CCC(=O)Nc1nc(-c2ccccc2)cs1 [F 1657, N(4-phenyl 2-thiazolyl) succinamic acid] | 20 | 25 | insoluble | > 1000 | 0 | –
12 | CCCCCCCCCCCCCCCCCC(=O)Nc1nc(-c2ccccc2)cs1 [F 1656, 4-phenyl 2-stearamido thiazole] | 20 | 20 | insoluble | > 1000 | 0 | –
13 | O=C(Nc1nc(-c2ccccc2)cs1)c1cccnc1 [F 1684, N(4-phenyl 2-thiazolyl) nicotinamide] | 5 | 5 | insoluble | > 1000 | 0 | –
14 | O=C(O)CCC(=O)Nc1nc(-c2ccc(Cl)cc2)cs1 [F 1683, N(4-parachlorophenyl 2-thiazolyl) succinamic acid] | 20 | 20 | insoluble | > 1000 | 0 | –
